According to PMC8355244, “A fragment-based approach identifies an allosteric pocket that impacts malate dehydrogenase activity” (Communications Biology, 2021):
Values joined by “and” are separate entries in the source; they are usually repeats but may differ in a detail not shown here. Equal values may be shown once.

How the values were obtained:
PfMDH = biological target: T1, PfMDH (Plasmodium falciparum, UniProt Q6VVP7); assay: Thermal shift assay (TSA); type: binding; details: for TSA melting curve raw signal: triplicate columns; for TSA melting curve raw fluorescence signal: three replicate columns
T1 construct: The full-length WT PfMDH gene was cloned into pETM-13; made in house; host or cells: E. coli Rosetta 2 (DE3) pLysS
Outline: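 10 μM PfMDH with 1 mM compound in 100 mM Na–phosphate pH 7.4, 400 mM NaCl, 10× Sypro Orange; 1% DMSO controls. Melting inflection points taken as Tm; shifts >1 °C read as stabilization, negative shifts as destabilization.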

[1] = Precipitation / turbidity of compound in assay buffer (600 nm); type: physicochemical; details: aqueous assay buffer
Experimental: 1.3 µL of derivatives of 4-phenylthiazol-2-amine in 100% DMSO were mixed with 237.7 µL of a mastermix of WT PfMDH previously incubated with NAD+. The final compound concentration used in this screening was 500 µM in the presence of 0.5% (v/v) DMSO. The microplate was sealed with silver foil for 1-h incubation at 25–35 °C. Finally, reactions in both the samples and control wells were started upon the addition of 13.0 µL of 5 mM malate). At the end of the experiments, the reaction of the plate was spectrophotometrically assayed at 600 nm in order to identify turbidity due to the low solubility of the compound. All measurements were performed in duplicate.

T1 sequence (Q6VVP7 entry or part of it): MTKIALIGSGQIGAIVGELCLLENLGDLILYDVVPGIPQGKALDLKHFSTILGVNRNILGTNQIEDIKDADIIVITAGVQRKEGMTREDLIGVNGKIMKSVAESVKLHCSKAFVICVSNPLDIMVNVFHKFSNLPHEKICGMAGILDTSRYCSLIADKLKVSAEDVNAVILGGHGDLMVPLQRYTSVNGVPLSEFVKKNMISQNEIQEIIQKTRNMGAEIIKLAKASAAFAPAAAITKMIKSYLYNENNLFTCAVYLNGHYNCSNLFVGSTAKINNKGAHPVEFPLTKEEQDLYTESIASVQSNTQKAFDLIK

Nc1nc(-c2ccccc2)cs1 [4PA, 4-phenylthiazol-2-amine]
ΔTm at 1000 µM (PfMDH; 1 mM compound vs DMSO control): -3 °C | Tm (PfMDH; 1 mM compound, 10 μM PfMDH, DMSO control Tm 58): 55.0 ± 0.2 °C | TSA melting curve raw signal (PfMDH; Temperature 25): 3101.562 and 3333.877 and 3419.875 | TSA melting curve raw signal (PfMDH; Temperature 28.5): 2982.864 and 3197.483 and 3331.476 | TSA melting curve raw signal (PfMDH; Temperature 29): 2965.133 and 3176.088 and 3316.215 | TSA melting curve raw signal (PfMDH; Temperature 29.5): 2946.457 and 3153.433 and 3298.876 | TSA melting curve raw signal (PfMDH; Temperature 30): 2926.726 and 3129.047 and 3278.959 | TSA melting curve raw signal (PfMDH; Temperature 30.5): 2906.089 and 3103.354 and 3257.233 | TSA melting curve raw signal (PfMDH; Temperature 31): 2885.408 and 3077.356 and 3234.634 | TSA melting curve raw signal (PfMDH; Temperature 31.5): 2865.452 and 3051.863 and 3212.437 | TSA melting curve raw signal (PfMDH; Temperature 32): 2847.461 and 3027.963 and 3192.183 | TSA melting curve raw signal (PfMDH; Temperature 32.5): 2831.845 and 3007.388 and 3175.246 | TSA melting curve raw signal (PfMDH; Temperature 33): 2819.491 and 2990.613 and 3162.466 | TSA melting curve raw signal (PfMDH; Temperature 33.5): 2810.837 and 2978.017 and 3154.456 | TSA melting curve raw signal (PfMDH; Temperature 34): 2806.172 and 2970.163 and 3151.8 | TSA melting curve raw signal (PfMDH; Temperature 34.5): 2805.279 and 2966.904 and 3154.834 | TSA melting curve raw signal (PfMDH; Temperature 35): 2808.767 and 2967.899 and 3163.624 | TSA melting curve raw signal (PfMDH; Temperature 35.5): 2816.443 and 2973.639 and 3178.538 | TSA melting curve raw signal (PfMDH; Temperature 36): 2828.317 and 2984.069 and 3199.383 | TSA melting curve raw signal (PfMDH; Temperature 36.5): 2844.427 and 2998.946 and 3225.589 | TSA melting curve raw signal (PfMDH; Temperature 37): 2864.693 and 3018.271 and 3256.517 | TSA melting curve raw signal (PfMDH; Temperature 37.5): 2888.742 and 3042.246 and 3291.976 | TSA melting curve raw signal (PfMDH; Temperature 38): 2916.555 and 3070.379 and 3330.731 | TSA melting curve raw signal (PfMDH; Temperature 38.5): 2948.507 and 3102.617 and 3372.906 | TSA melting curve raw signal (PfMDH; Temperature 39): 2984.548 and 3139.232 and 3418.523 | TSA melting curve raw signal (PfMDH; Temperature 39.5): 3025.238 and 3180.62 and 3468.123 | TSA melting curve raw signal (PfMDH; Temperature 40): 3070.846 and 3226.341 and 3521.558 | TSA melting curve raw signal (PfMDH; Temperature 40.5): 3121.424 and 3276.836 and 3579.878 | TSA melting curve raw signal (PfMDH; Temperature 41): 3176.735 and 3332.701 and 3643.235 | TSA melting curve raw signal (PfMDH; Temperature 41.5): 3236.92 and 3394.066 and 3712.066 | TSA melting curve raw signal (PfMDH; Temperature 42): 3301.878 and 3461.348 and 3786.574 | TSA melting curve raw signal (PfMDH; Temperature 42.5): 3371.782 and 3535.427 and 3867.61 | TSA melting curve raw signal (PfMDH; Temperature 43): 3446.967 and 3616.442 and 3955.318 | TSA melting curve raw signal (PfMDH; Temperature 43.5): 3527.686 and 3704.688 and 4050.074 | TSA melting curve raw signal (PfMDH; Temperature 44): 3614.17 and 3800.745 and 4152.165 | TSA melting curve raw signal (PfMDH; Temperature 44.5): 3706.596 | TSA melting curve raw fluorescence signal (PfMDH; Temperature 73.5): 6991.444 and 7655.524 and 7881.758 | TSA melting curve raw fluorescence signal (PfMDH; Temperature 74): 6939.612 and 7600.258 and 7826.265 | TSA melting curve raw fluorescence signal (PfMDH; Temperature 74.5): 6888.076 and 7546.666 and 7771.787 | TSA melting curve raw fluorescence signal (PfMDH; Temperature 75): 6836.407 and 7493.684 and 7717.224 | TSA melting curve raw fluorescence signal (PfMDH; Temperature 75.5): 6784.183 and 7441.52 and 7662.752 | TSA melting curve raw fluorescence signal (PfMDH; Temperature 76): 6731.402 and 7389.749 and 7608.451 | TSA melting curve raw fluorescence signal (PfMDH; Temperature 76.5): 6679.444 and 7337.884 and 7553.49 | TSA melting curve raw fluorescence signal (PfMDH; Temperature 77): 6628.226 and 7285.068 and 7497.822 | TSA melting curve raw fluorescence signal (PfMDH; Temperature 77.5): 6578.245 and 7231.451 and 7441.978 | TSA melting curve raw fluorescence signal (PfMDH; Temperature 78): 6529.803 and 7176.607 and 7385.969 | TSA melting curve raw fluorescence signal (PfMDH; Temperature 78.5): 6482.748 and 7121.157 and 7329.423 | TSA melting curve raw fluorescence signal (PfMDH; Temperature 79): 6436.76 and 7065.937 and 7274.048 | TSA melting curve raw fluorescence signal (PfMDH; Temperature 79.5): 6391.899 and 7012.239 and 7219.892 | TSA melting curve raw fluorescence signal (PfMDH; Temperature 80): 6347.542 and 6960.087 and 7166.546 | TSA melting curve raw fluorescence signal (PfMDH; Temperature 80.5): 6302.907 and 6909.426 and 7113.859 | TSA melting curve raw fluorescence signal (PfMDH; Temperature 81): 6257.989 and 6859.788 and 7062.389 | TSA melting curve raw fluorescence signal (PfMDH; Temperature 81.5): 6211.993 and 6810.814 and 7010.574 | TSA melting curve raw fluorescence signal (PfMDH; Temperature 82): 6164.6 and 6762.251 and 6958.299 | TSA melting curve raw fluorescence signal (PfMDH; Temperature 82.5): 6116.092 and 6712.951 and 6905.437 | TSA melting curve raw fluorescence signal (PfMDH; Temperature 83): 6067.721 and 6663.14 and 6852.004 | TSA melting curve raw fluorescence signal (PfMDH; Temperature 83.5): 6019.674 and 6612.874 and 6798.049 | TSA melting curve raw fluorescence signal (PfMDH; Temperature 84): 5972.405 and 6562.27 and 6744.245 | TSA melting curve raw fluorescence signal (PfMDH; Temperature 84.5): 5926.625 and 6510.347 and 6690.517 | TSA melting curve raw fluorescence signal (PfMDH; Temperature 85): 5882.391 and 6459.307 and 6637.567 | TSA melting curve raw fluorescence signal (PfMDH; Temperature 85.5): 5838.459 and 6409.022 and 6584.837 | TSA melting curve raw fluorescence signal (PfMDH; Temperature 86): 5794.143 and 6359.5 and 6531.78 | TSA melting curve raw fluorescence signal (PfMDH; Temperature 86.5): 5749.377 and 6310.687 and 6478.281 | TSA melting curve raw fluorescence signal (PfMDH; Temperature 87): 5703.739 and 6263.164 and 6424.447 | TSA melting curve raw fluorescence signal (PfMDH; Temperature 87.5): 5656.691 and 6215.001 and 6369.065 | TSA melting curve raw fluorescence signal (PfMDH; Temperature 88): 5609.372 and 6165.882 and 6313.087 | TSA melting curve raw fluorescence signal (PfMDH; Temperature 88.5): 5562.587 and 6115.522 and 6256.819 | TSA melting curve raw fluorescence signal (PfMDH; Temperature 89): 5515.924 and 6063.705 and 6199.979 | TSA melting curve raw fluorescence signal (PfMDH; Temperature 89.5): 5468.97 and 6010.228 and 6142.345 | TSA melting curve raw fluorescence signal (PfMDH; Temperature 90): 5422.458 | solubility (in words) [1]: slightly more soluble than 4DT
